Reference: patent publication US12599136B2, “Substituted isophthalic acid diamides and their use as herbicides” (Bayer Aktiengesellschaft, priority 2020, dated 2026)

Experiments:
Type in all cases: in vivo
[1] = system: Abutilon theophrasti; assay: Pre-emergence herbicidal action against ABUTH; conditions: visual score after 3 weeks vs untreated controls
Method in brief: (§1)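 Herbicidal effect was assessed 3 weeks after treatment by visual comparison with untreated controls, 100% denoting dead plants. Aqueous WP or EC preparations had been applied at 600 to 800 l/ha with 0.2% wetting agent to the soil covering freshly sown seeds.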

[2] = system: Alopecurus myosuroides; assay: Pre-emergence herbicidal action against ALOMY; conditions: visual score after 3 weeks vs untreated controls
Method in brief: as §1

[3] = system: Amaranthus retroflexus; assay: Pre-emergence herbicidal action against AMARE; conditions: visual score after 3 weeks vs untreated controls
Method in brief: as §1

[4] = system: Avena fatua; assay: Pre-emergence herbicidal action against AVEFA; conditions: 320 g/ha; visual score after 3 weeks vs untreated controls
Method in brief: as §1

[5] = system: Cyperus esculentus; assay: Pre-emergence herbicidal action against CYPES; conditions: visual score after 3 weeks vs untreated controls
Method in brief: as §1

[6] = system: Echinochloa crus-galli; assay: Pre-emergence herbicidal action against ECHCG; conditions: visual score after 3 weeks vs untreated controls
Method in brief: as §1

[7] = system: Matricaria inodora; assay: Pre-emergence herbicidal action against MATIN; conditions: visual score after 3 weeks vs untreated controls
Method in brief: as §1

[8] = system: Pharbitis purpurea; assay: Pre-emergence herbicidal action against PHBPU; conditions: 320 g/ha; visual score after 3 weeks vs untreated controls
Method in brief: as §1

[9] = system: Hordeum murinum; assay: Pre-emergence herbicidal action against HORMU; conditions: 320 g/ha; visual score after 3 weeks vs untreated controls
From the text: Seeds of monocotyledonous and dicotyledonous weed plants and crop plants are laid out in sandy loam soil in wood-fiber pots and covered with soil. The compounds of the invention, formulated in the form of wettable powders (WP) or as emulsion concentrates (EC), are then applied to the surface of the covering soil in the form of an aqueous suspension or emulsion at a water application rate equivalent to 600 to 800 l/ha, with addition of 0.2% wetting agent. After the treatment, the pots are placed in a greenhouse and kept under good growth conditions for the trial plants. The damage to the test plants is scored visually after a test period of 3 weeks by comparison with untreated controls (herbicidal activity in percent (%): 100% activity=the plants have died, 0% activity=like control plants). […] The tables below illustrate, in an illustrative manner, the post-emergence herbicidal action of the compounds of the invention, the herbicidal activity being stated in percent.

[10] = system: Polygonum convolvulus; assay: Pre-emergence herbicidal action against POLCO; conditions: 320 g/ha
Method in brief: as §1

[11] = system: Setaria viridis; assay: Pre-emergence herbicidal action against SETVI
Method in brief: as §1

[12] = system: Stellaria media; assay: Pre-emergence herbicidal action against STEME
Method in brief: as §1

[13] = system: Veronica persica; assay: Pre-emergence herbicidal action against VERPE; conditions: 320 g/ha
Method in brief: as §1

[14] = system: Viola tricolor; assay: Pre-emergence herbicidal action against VIOTR
Method in brief: as §1

[15] = system: Abutilon theophrasti; assay: Post-emergence herbicidal action against ABUTH
Method in brief: (§2)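 Post-emergence greenhouse test; one-leaf stage, 2–3 wk post-sowing, sandy loam. Foliar spray of WP/EC in water, 600–800 l/ha, +0.2% wetting agent. Visual % action at ~3 wk vs untreated (100% = plants dead).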

[16] = system: Amaranthus retroflexus; assay: Post-emergence herbicidal action against AMARE; conditions: visual assessment about 3 weeks after treatment
Method in brief: as §2

[17] = system: Echinochloa crus-galli; assay: Post-emergence herbicidal action against ECHCG; conditions: visual assessment about 3 weeks after treatment
Method in brief: as §2

[18] = system: Matricaria inodora; assay: Post-emergence herbicidal action against MATIN; conditions: visual assessment about 3 weeks after treatment
Method in brief: as §2

[19] = system: Pharbitis purpurea; assay: Post-emergence herbicidal action against PHBPU; conditions: visual assessment about 3 weeks after treatment
Method in brief: as §2

[20] = system: Polygonum convolvulus; assay: Post-emergence herbicidal action against POLCO; conditions: 80 g/ha, visual assessment about 3 weeks after treatment
Protocol: (§3) Seeds of monocotyledonous and dicotyledonous weed and crop plants are laid out in sandy loam soil in wood-fiber pots, covered with soil and cultivated in a greenhouse under good growth conditions. 2 to 3 weeks after sowing, the test plants are treated at the one-leaf stage. The compounds of the invention, formulated in the form of wettable powders (WP) or as emulsion concentrates (EC), are then sprayed onto the green parts of the plants in the form of an aqueous suspension or emulsion at a water application rate equivalent to 600 to 800 l/ha, with addition of 0.2% wetting agent. After the test plants have been left to stand in the greenhouse under optimal growth conditions for about 3 weeks, the action of the preparations is assessed visually in comparison to untreated controls (herbicidal action in percent (%): 100% activity=the plants have died, 0% activity=like control plants). […] The tables below illustrate, in an illustrative manner, the post-emergence herbicidal action of the compounds of the invention, the herbicidal activity being stated in percent.

[21] = system: Stellaria media; assay: Post-emergence herbicidal action against STEME; conditions: visual assessment about 3 weeks after treatment
Method in brief: as §2

[22] = system: Veronica persica; assay: Post-emergence herbicidal action against VERPE; conditions: visual assessment about 3 weeks after treatment
Method in brief: as §2

[23] = system: Viola tricolor; assay: Post-emergence herbicidal action against VIOTR
Method in brief: as §2

[24] = system: Lolium rigidum; assay: Pre-emergence herbicidal action against LOLRI; conditions: 320 g/ha
Method in brief: as §1

[25] = system: Alopecurus myosuroides; assay: Post-emergence herbicidal action against ALOMY
Method in brief: as §2

[26] = system: Avena fatua; assay: Post-emergence herbicidal action against AVEFA; conditions: visual assessment about 3 weeks after treatment
Method in brief: as §2

[27] = system: Cyperus esculentus; assay: Post-emergence herbicidal action against CYPES; conditions: 80 g/ha, visual assessment about 3 weeks after treatment
Protocol: as §3

[28] = system: Hordeum murinum; assay: Post-emergence herbicidal action against HORMU
Protocol: as §3

[29] = system: Setaria viridis; assay: Post-emergence herbicidal action against SETVI; conditions: visual assessment about 3 weeks after treatment
Method in brief: as §2

[30] = Dosage column 320 g/ha (heading prints 3200 g/ha)

## Cc1ccccc1N(C)C(=O)c1c(Cl)ccc(C(=O)Nc2nnnn2C)c1Cl [Example 1-399]
[1]; 80 g/ha
  Pre-emergence action against ABUTH: 100%
[1]; [30]
  Pre-emergence action against ABUTH: 100%
[2]; 80 g/ha
  Pre-emergence action against ALOMY: 80%
[2]; 320 g/ha
  Pre-emergence action against ALOMY: 100%
[3]; 20 g/ha
  Pre-emergence action against AMARE: 90%
[3]; 80 g/ha
  Pre-emergence action against AMARE: 100%
[3]; 320 g/ha
  Pre-emergence action against AMARE: 100%
[4]
  Pre-emergence action against AVEFA: 90%
[5]; 320 g/ha
  Pre-emergence action against CYPES: 90%
[6]; 80 g/ha
  Pre-emergence action against ECHCG: 100%
[6]; 320 g/ha
  Pre-emergence action against ECHCG: 100%
[7]; 80 g/ha
  Pre-emergence action against MATIN: 90%
[7]; 320 g/ha
  Pre-emergence action against MATIN: 100%
[8]
  Pre-emergence action against PHBPU: 90%
[9]
  Pre-emergence action against HORMU: 90%
[10]
  Pre-emergence action against POLCO: 90%
[11]; 320 g/ha
  Pre-emergence action against SETVI: 100%
[12]; 20 g/ha
  Pre-emergence action against STEME: 90%
[12]; 80 g/ha
  Pre-emergence action against STEME: 90%
[12]; 320 g/ha
  Pre-emergence action against STEME: 100%
[13]
  Pre-emergence action against VERPE: 80%
[14]; 80 g/ha
  Pre-emergence action against VIOTR: 100%
[14]; 320 g/ha
  Pre-emergence action against VIOTR: 100%
[15]; 5 g/ha
  Post-emergence action against ABUTH: 80%
[15]; 20 g/ha
  Post-emergence action against ABUTH: 100%
[15]; 80 g/ha
  Post-emergence action against ABUTH: 100%
[16]; 5 g/ha
  Post-emergence action against AMARE in %: 100%
[16]; 20 g/ha
  Post-emergence action against AMARE in %: 100%
[16]; 80 g/ha
  Post-emergence action against AMARE in %: 100%
[17]; 20 g/ha
  Post-emergence action against ECHCG in %: 80%
[17]; 80 g/ha
  Post-emergence action against ECHCG in %: 100%
[18]; 20 g/ha
  Post-emergence action against MATIN in %: 90%
[18]; 80 g/ha
  Post-emergence action against MATIN in %: 90%
[19]; 80 g/ha
  Post-emergence action against PHBPU in %: 90%
[20]
  Post-emergence action against POLCO in %: 100%
[21]; 5 g/ha
  Post-emergence action against STEME in %: 80%
[21]; 20 g/ha
  Post-emergence action against STEME in %: 90%
[21]; 80 g/ha
  Post-emergence action against STEME in %: 100%
[22]; 20 g/ha
  Post-emergence action against VERPE in %: 80%
[22]; 80 g/ha
  Post-emergence action against VERPE in %: 90%
[23]; 80 g/ha
  Post-emergence action against VIOTR in %: 100%

## CCCn1nnnc1NC(=O)c1ccc(C(F)(F)F)c(C(=O)N(C)CC)c1Cl [Example 3-124]
[1]; 20 g/ha
  Pre-emergence action against ABUTH: 100%
[1]; 80 g/ha
  Pre-emergence action against ABUTH: 100%
[1]; [30]
  Pre-emergence action against ABUTH: 100%
[2]; 80 g/ha
  Pre-emergence action against ALOMY: 80%
[2]; 320 g/ha
  Pre-emergence action against ALOMY: 90%
[3]; 20 g/ha
  Pre-emergence action against AMARE: 90%
[3]; 80 g/ha
  Pre-emergence action against AMARE: 100%
[3]; 320 g/ha
  Pre-emergence action against AMARE: 100%
[4]
  Pre-emergence action against AVEFA: 100%
[5]; 80 g/ha
  Pre-emergence action against CYPES: 80%
[5]; 320 g/ha
  Pre-emergence action against CYPES: 90%
[6]; 80 g/ha
  Pre-emergence action against ECHCG: 80%
[6]; 320 g/ha
  Pre-emergence action against ECHCG: 100%
[7]; 20 g/ha
  Pre-emergence action against MATIN: 80%
[7]; 80 g/ha
  Pre-emergence action against MATIN: 90%
[7]; 320 g/ha
  Pre-emergence action against MATIN: 90%
[8]
  Pre-emergence action against PHBPU: 90%
[9]
  Pre-emergence action against HORMU: 80%
[24]
  Pre-emergence action against LOLRI: 80%
[11]; 80 g/ha
  Pre-emergence action against SETVI: 90%
[11]; 320 g/ha
  Pre-emergence action against SETVI: 100%
[12]; 20 g/ha
  Pre-emergence action against STEME: 90%
[12]; 80 g/ha
  Pre-emergence action against STEME: 100%
[12]; 320 g/ha
  Pre-emergence action against STEME: 100%
[13]
  Pre-emergence action against VERPE: 90%
[14]; 80 g/ha
  Pre-emergence action against VIOTR: 80%
[14]; 320 g/ha
  Pre-emergence action against VIOTR: 100%
[15]; 5 g/ha
  Post-emergence action against ABUTH: 100%
[15]; 20 g/ha
  Post-emergence action against ABUTH: 100%
[15]; 80 g/ha
  Post-emergence action against ABUTH: 100%
[25]; 20 g/ha
  Post-emergence action against ALOMY: 80%
[25]; 80 g/ha
  Post-emergence action against ALOMY: 100%
[16]; 5 g/ha
  Post-emergence action against AMARE in %: 100%
[16]; 20 g/ha
  Post-emergence action against AMARE in %: 100%
[16]; 80 g/ha
  Post-emergence action against AMARE in %: 100%
[26]; 20 g/ha
  Post-emergence action against AVEFA in %: 80%
[26]; 80 g/ha
  Post-emergence action against AVEFA in %: 100%
[27]
  Post-emergence action against CYPES in %: 80%
[17]; 5 g/ha
  Post-emergence action against ECHCG in %: 90%
[17]; 20 g/ha
  Post-emergence action against ECHCG in %: 100%
[17]; 80 g/ha
  Post-emergence action against ECHCG in %: 100%
[18]; 5 g/ha
  Post-emergence action against MATIN in %: 90%
[18]; 20 g/ha
  Post-emergence action against MATIN in %: 100%
[18]; 80 g/ha
  Post-emergence action against MATIN in %: 100%
[19]; 5 g/ha
  Post-emergence action against PHBPU in %: 90%
[19]; 20 g/ha
  Post-emergence action against PHBPU in %: 90%
[19]; 80 g/ha
  Post-emergence action against PHBPU in %: 100%
[28]; 20 g/ha
  Post-emergence action against HORMU in %: 80%
[28]; 80 g/ha
  Post-emergence action against HORMU in %: 80%
[20]
  Post-emergence action against POLCO in %: 80%
[29]; 5 g/ha
  Post-emergence action against SETVI in %: 90%
[29]; 20 g/ha
  Post-emergence action against SETVI in %: 90%
[29]; 80 g/ha
  Post-emergence action against SETVI in %: 100%
[21]; 5 g/ha
  Post-emergence action against STEME in %: 90%
[21]; 20 g/ha
  Post-emergence action against STEME in %: 100%
[21]; 80 g/ha
  Post-emergence action against STEME in %: 100%
[22]; 80 g/ha
  Post-emergence action against VERPE in %: 80%
[23]; 5 g/ha
  Post-emergence action against VIOTR in %: 100%
[23]; 20 g/ha
  Post-emergence action against VIOTR in %: 100%
[23]; 80 g/ha
  Post-emergence action against VIOTR in %: 100%
